Patent publication US20030068615A1, “Polypeptides that bind HIV gp120 and related nucleic acids, antibodies, compositions, and methods of use” (priority 1999, published 2003)
Read-outs that look alike come from different tables or passages of the source.

Biological target: HIV-1LAI envelope gp120 (Human immunodeficiency virus type 1 group M subtype B, UniProt P03377)
Assay type: binding
Conditions: for Counts per 20′ Average-background: CCR5 18-mer scan, radiolabeled HIV-1LAI gp120; for number of radioactive decays (counts) counted: human CD4 21-mer scan, empty control 2075
[1] = CXCR4 18-mer scan, background subtracted, empty control 0
[2] = CXCR4 18-mer scan, empty control 412
[3] = Panel D, 9-mers and 12-mers of CD4, empty control […]
[4] = Panel B, 15-mers and 18-mers of CD4, empty control 575
[5] = STRL33 18-mer scan, background subtracted, first of two count columns
[6] = STRL33 18-mer scan, background subtracted, second of two count columns
[7] = Panel E, 9-mers and 12-mers of CD4, empty control 571
[8] = Panel C, 15-mers and 18-mers of CD4, empty control 556
[9] = Panel A, 21-mers of CD4, empty control 515 and 617

## IGISIDSFILLEIIKQGC [CXCR4 segment 257-274]
[1]
  radioactive counts recorded in twenty minutes: 734 counts
[2]
  radioactive counts recorded in twenty minutes: 1146 counts

## IIISKLSHSKGHQKRKAL
[1]
  radioactive counts recorded in twenty minutes: 157 counts
[2]
  radioactive counts recorded in twenty minutes: 569 counts

## IIKNLKIED
[3]
  COUNTS of radiolabeled gp120 retained: 658 counts

## IIKNLKIEDSDT
[3]
  COUNTS of radiolabeled gp120 retained: 511 counts

## IIKNLKIEDSDTYIC
[4]
  COUNTS of radiolabeled gp120 retained: 664 counts

## IIKNLKIEDSDTYICEVE
[4]
  COUNTS of radiolabeled gp120 retained: 751 counts

## IIKQGCEFENTVEKWISI [CXCR4 segment 269-286]
[1]
  radioactive counts recorded in twenty minutes: 106 counts
[2]
  radioactive counts recorded in twenty minutes: 518 counts

## IKNLKIEDS
[3]
  COUNTS of radiolabeled gp120 retained: 557 counts

## IKNLKIEDSDTY
[3]
  COUNTS of radiolabeled gp120 retained: 574 counts

## IKNLKIEDSDTYICE
[4]
  COUNTS of radiolabeled gp120 retained: 568 counts

## IKNLKIEDSDTYICEVED
[4]
  COUNTS of radiolabeled gp120 retained: 699 counts

## ILAFFACWLPYYIGISID [CXCR4 segment 245-262]
[1]
  radioactive counts recorded in twenty minutes: 184 counts
[2]
  radioactive counts recorded in twenty minutes: 596 counts

## ILKTLLRCRNEKKRHRAV
Background subtracted
  Counts per 20′ Average-background: 19 counts per 20′

## ILLEIIKQGCEFENTVHK [CXCR4 segment 265-282]
[1]
  radioactive counts recorded in twenty minutes: 117 counts
[2]
  radioactive counts recorded in twenty minutes: 529 counts

## ILPGIVILSCYCIIISKL [CXCR4 segment 209-226]
[1]
  radioactive counts recorded in twenty minutes: 192 counts
[2]
  radioactive counts recorded in twenty minutes: 604 counts

## IPDFIFANVSEADDRYIC
[1]
  radioactive counts recorded in twenty minutes: 438 counts
[2]
  radioactive counts recorded in twenty minutes: 850 counts

## IRSTHWEYYAMTSFHYTI
[5]
  radioactive counts recorded in twenty minutes: 1571.5 counts
[6]
  radioactive counts recorded in twenty minutes: 1807.5 counts

## ITLPFWAVDAVANWYFGN [CXCR4 segment 89-106]
[1]
  radioactive counts recorded in twenty minutes: 130 counts
[2]
  radioactive counts recorded in twenty minutes: 542 counts

## IVGNGLVILVMGYQKKLR [CXCR4 segment 53-70]
[1]
  radioactive counts recorded in twenty minutes: 238 counts
[2]
  radioactive counts recorded in twenty minutes: 650 counts

## IVILSCYCIIISKLSHSK
[1]
  radioactive counts recorded in twenty minutes: 277 counts
[2]
  radioactive counts recorded in twenty minutes: 689 counts

## IVLLLNTFQEFFGLNNCS
Background subtracted
  Counts per 20′ Average-background: 2134 counts per 20′

## IVVLAFQKA
[7]
  COUNTS of radiolabeled gp120 retained: 602 counts

## IVVLAFQKASSI
[7]
  COUNTS of radiolabeled gp120 retained: 548 counts

## IVVLAFQKASSIVYK
[8]
  COUNTS of radiolabeled gp120 retained: 783 counts

## IVVLAFQKASSIVYKKEG
[8]
  COUNTS of radiolabeled gp120 retained: 531 counts

## IVVLAFQKASSIVYKKEGEQV
[9]
  COUNTS of radiolabeled gp120 retained: 646 counts

## IVVVKATKAYNQQAKRMT
[5]
  radioactive counts recorded in twenty minutes: 166.5 counts
[6]
  radioactive counts recorded in twenty minutes: 43.5 counts

## IVYKKEGEQ
[7]
  COUNTS of radiolabeled gp120 retained: 534 counts

## IVYKKEGEQVEF
[7]
  COUNTS of radiolabeled gp120 retained: 533 counts

## IVYKKEGEQVEFSFP
[8]
  COUNTS of radiolabeled gp120 retained: 615 counts

## IVYKKEGEQVEFSFPLAF
[8]
  COUNTS of radiolabeled gp120 retained: 5382 counts

## IVYKKEGEQVEFSFPLAFTVE
[9]
  COUNTS of radiolabeled gp120 retained: 15620 counts

## IYDINYYTSEPCQKINVK [CCR5 segment 9-26]
Background subtracted
  Counts per 20′ Average-background: 228 counts per 20′

## KASSIVYKK
[7]
  COUNTS of radiolabeled gp120 retained: 498 counts

## KASSIVYKKEGE
[7]
  COUNTS of radiolabeled gp120 retained: 559 counts

## KASSIVYKKEGEQVE
[8]
  COUNTS of radiolabeled gp120 retained: 563 counts

## KASSIVYKKEGEQVEFSF
[8]
  COUNTS of radiolabeled gp120 retained: 536 counts

## KASSIVYKKEGEQVEFSFPLA [human CD4 206-226]
[9]
  COUNTS of radiolabeled gp120 retained: 30873 counts
  number of radioactive decays (counts) counted: 14347 counts

## KATKAYNQQAKRMTWGKV
[5]
  radioactive counts recorded in twenty minutes: 701.5 counts
[6]
  radioactive counts recorded in twenty minutes: 568.5 counts

## KAVWVLNPEAGMWQCLLSDSG [human CD4 356-376]
  number of radioactive decays (counts) counted: 3133 counts

## KEEVQLLVF
[3]
  COUNTS of radiolabeled gp120 retained: 1273 counts

## KEEVQLLVFGLT
[3]
  COUNTS of radiolabeled gp120 retained: 1774 counts

## KEEVQLLVFGLTANS
[4]
  COUNTS of radiolabeled gp120 retained: 3485 counts

## KEEVQLLVFGLTANSDTH
[4]
  COUNTS of radiolabeled gp120 retained: 1271 counts

## KEGEQVEFS
[7]
  COUNTS of radiolabeled gp120 retained: 595 counts

## KEGEQVEFSFPL
[7]
  COUNTS of radiolabeled gp120 retained: 710 counts

## KEGEQVEFSFPLAFT
[8]
  COUNTS of radiolabeled gp120 retained: 3253 counts

## KEGEQVEFSFPLAFTVEK
[8]
  COUNTS of radiolabeled gp120 retained: 3117 counts

## KEGEQVEFSFPLAFTVEKLTG
[9]
  COUNTS of radiolabeled gp120 retained: 972 counts

## KEPCFREENANFNKIFLP [CXCR4 segment 25-42]
[1]
  radioactive counts recorded in twenty minutes: 252 counts
[2]
  radioactive counts recorded in twenty minutes: 664 counts

## KIDIVVLAF
[7]
  COUNTS of radiolabeled gp120 retained: 665 counts

## KIDIVVLAFQKA
[7]
  COUNTS of radiolabeled gp120 retained: 689 counts

## KIDIVVLAFQKASSI
[8]
  COUNTS of radiolabeled gp120 retained: 956 counts

## KIDIVVLAFQKASSIVYK
[8]
  COUNTS of radiolabeled gp120 retained: 779 counts

## KIDIVVLAFQKASSIVYKKEG
[9]
  COUNTS of radiolabeled gp120 retained: 1394 counts
  number of radioactive decays (counts) counted: 3681 counts

## KIEDSDTYI
[3]
  COUNTS of radiolabeled gp120 retained: 603 counts

## KIEDSDTYICEV
[3]
  COUNTS of radiolabeled gp120 retained: 601 counts

## KIEDSDTYICEVEDQ
[4]
  COUNTS of radiolabeled gp120 retained: 1088 counts

## KIEDSDTYICEVEDQKEE
[4]
  COUNTS of radiolabeled gp120 retained: 858 counts

## KIVILGLVLPLLVMVICY
Background subtracted
  Counts per 20′ Average-background: 65 counts per 20′

## KKEGEQVEF
[7]
  COUNTS of radiolabeled gp120 retained: 546 counts

## KKEGEQVEFSFP
[7]
  COUNTS of radiolabeled gp120 retained: 598 counts

## KKEGEQVEFSFPLAF
[8]
  COUNTS of radiolabeled gp120 retained: 1921 counts

## KKEGEQVEFSFPLAFTVE
[8]
  COUNTS of radiolabeled gp120 retained: 4683 counts

## KKEGEQVEFSFPLAFTVEKLT
[9]
  COUNTS of radiolabeled gp120 retained: 1847 counts

## KKLPLHLTLPQALPQYAGSGN [human CD4 276-296]
  number of radioactive decays (counts) counted: 1922 counts

## KKVEFKIDI
[7]
  COUNTS of radiolabeled gp120 retained: 501 counts

## KKVEFKIDIVVL
[7]
  COUNTS of radiolabeled gp120 retained: 597 counts

## KKVEFKIDIVVLAFQ
[8]
  COUNTS of radiolabeled gp120 retained: 951 counts

## KKVEFKIDIVVLAFQKAS
[8]
  COUNTS of radiolabeled gp120 retained: 912 counts

## KLICGYHDEAISTVVLAT [STRL33 segment 177-194]
[5]
  radioactive counts recorded in twenty minutes: 1363.5 counts
[6]
  radioactive counts recorded in twenty minutes: 1604.5 counts

## KLLAEKVVYVGVWIPALL
[1]
  radioactive counts recorded in twenty minutes: 89 counts
[2]
  radioactive counts recorded in twenty minutes: 501 counts

## KLQMGKKLPLHLTLPQALPQY
  number of radioactive decays (counts) counted: 1949 counts

## KLQSLTDVFLVNLPLADL [STRL33 segment 61-78]
[5]
  radioactive counts recorded in twenty minutes: 412.5 counts
[6]
  radioactive counts recorded in twenty minutes: 348.5 counts

## KLSHSKGHQKRKALKTTV [CXCR4 segment 225-242]
[1]
  radioactive counts recorded in twenty minutes: 130 counts
[2]
  radioactive counts recorded in twenty minutes: 542 counts

## KLTGSGELW
[7]
  COUNTS of radiolabeled gp120 retained: 491 counts

## KLTGSGELWWQAERASSSKSW [human CD4 231-251]
  number of radioactive decays (counts) counted: 1878 counts

## KLVKDIGCLPYLGVSHQW [STRL33 segment 301-318]
[5]
  radioactive counts recorded in twenty minutes: −2.5 counts
[6]
  radioactive counts recorded in twenty minutes: 27.5 counts

## KNFWKLVKDIGCLPYLGV [STRL33 segment 297-314]
[5]
  radioactive counts recorded in twenty minutes: 143.5 counts
[6]
  radioactive counts recorded in twenty minutes: 82.5 counts

## KNLKIEDSD
[3]
  COUNTS of radiolabeled gp120 retained: 612 counts

## KNLKIEDSDTYI
[3]
  COUNTS of radiolabeled gp120 retained: 523 counts

## KNLKIEDSDTYICEV
[4]
  COUNTS of radiolabeled gp120 retained: 562 counts

## KNLKIEDSDTYICEVEDQ
[4]
  COUNTS of radiolabeled gp120 retained: 708 counts

## KRGGHSSVSTESESSSFH [CXCR4 segment 333-350]
[1]
  radioactive counts recorded in twenty minutes: 167 counts
[2]
  radioactive counts recorded in twenty minutes: 579 counts

## KRHRAVRLIFTIMIVYFL [CCR5 segment 229-]
Background subtracted
  Counts per 20′ Average-background: 36 counts per 20′

## KRLLSEKKTCQCPERFQKTCS [human CD4 436-456]
  number of radioactive decays (counts) counted: 1674 counts

## KVEFKIDIV
[7]
  COUNTS of radiolabeled gp120 retained: 555 counts

## KVEFKIDIVVLA
[7]
  COUNTS of radiolabeled gp120 retained: 560 counts

## KVEFKIDIVVLAFQK
[8]
  COUNTS of radiolabeled gp120 retained: 1051 counts

## KVEFKIDIVVLAFQKASS
[8]
  COUNTS of radiolabeled gp120 retained: 1011 counts
